The target in the experiment is hV1a (Homo sapiens, UniProt P37288). Put plainly: In vitro competition binding assay on hV1a receptor with scintillating proximity assay. On the set-up: expressed in transfected cells; host or cells: CHO cells (membranes). The settings on record: membranes from CHO cells expressing hV1a receptor; radiolabel [125I]-LVA; SPA; read-out: Binding Affinity Human V1a Ki. The protocol:
b) In Vitro Competition Binding Assay on hV1a Receptor with Scintillating Proximity Assay
This assays allows to determine the affinity of the test compounds for the V1a receptor. Membranes from CHO cells expressing the hV1a receptor were resuspended in buffer containing 50 mM Tris-HCl, pH 7.4, 5 mM MgCl2 and 0.1% BSA (w/v). The membranes (5-10 μg) were mixed with 0.2 mg wheat-germ aglutinin (WGA) SPA bead (type A) and 0.03 nM of the radiolabel [^125I]-LVA (LVA being Linear Vasopressin Antagonist and is an analogue of AVP for competition binding experiments). Non-specific binding was determined in the presence of 1 μM AVP. The total assay volume was 100 μl. The plates (Corning 0 NBS plate) were incubated at room temperature for 2 hours and counted on a Mibrobeta plate counter. The tests compounds were used in concentrations of 30 μM, 10 μM, 1 μM, 300 nM, 100 nM, 10 nM, 1 nM, 100 pM, 10 pM. The competition binding data were analysed using the iterative, nonlinear, curve-fitting program, Graph pad “Prism”.
The binding affinities to the Via receptor of the sulfanilide derivatives claimed in the formula I were assessed using the above described in vitro biological assay. The values refer to the binding affinity (IC50; HM) of the example compounds according to formula I to the V1a receptor. From the values shown in Table 1 it can be derived that said test compounds according to formula I do show a significant binding to the Via receptor.

Chain of hV1a (P37288 whole entry): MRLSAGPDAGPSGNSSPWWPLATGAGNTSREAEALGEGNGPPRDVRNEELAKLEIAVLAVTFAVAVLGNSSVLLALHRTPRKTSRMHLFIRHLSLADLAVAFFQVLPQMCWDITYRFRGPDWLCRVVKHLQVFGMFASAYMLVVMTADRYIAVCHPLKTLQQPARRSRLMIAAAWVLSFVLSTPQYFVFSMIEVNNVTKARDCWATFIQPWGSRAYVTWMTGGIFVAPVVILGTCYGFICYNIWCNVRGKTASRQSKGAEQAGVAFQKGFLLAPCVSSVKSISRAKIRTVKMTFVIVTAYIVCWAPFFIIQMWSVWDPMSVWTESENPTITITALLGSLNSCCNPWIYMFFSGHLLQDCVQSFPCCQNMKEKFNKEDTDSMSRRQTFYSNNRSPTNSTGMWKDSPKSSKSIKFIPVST

By Ki is commonly meant the equilibrium dissociation constant of an inhibitor or competing ligand from its target. `CCOc1ccc(S(=O)(=O)N(CC(=O)N/N=C2/C(=O)Nc3ccccc32)c2ccc(C)cc2)cc1` [Example 5, 4-ethoxy-N-(4-methylphenyl)-N-{2-oxo-2-[2-(2-oxo-1,2-dihydro-3H-indol-3-ylidene)hydrazino]ethyl}benzenesulfonamide]: the Ki came to 750 nM.

Values taken from patent US7312358B2, “Pharmaceutically active sulfanilide derivatives” (Laboratoires Serono SA, priority 2000, dated 2007).
